Experiments:
[1] = tested on: OCSC1 (chemoresistant CD44+/MyD88+ ovarian cancer stem cell clone); test: Real-time measurement of cell number/cell death and IC50, OCSC1 clone; assay type: cell-based; details: Homo sapiens; screen of 40 SBP analogs, OCSC1 clone (FIG. 1A)
Description: CD44+/MyD88+ ovarian cancer stem cell clones (OCSC1 and OCSC2) and CD44−/MyD88− ovarian cancer cells (OCC1 and OCC2) were isolated from either tumor tissue or ascites obtained from patients diagnosed with stage III/IV serous ovarian cancer and propagated (Alvero, et al., 2009, Cell Cycle 8:158-166; Chefetz, et al., 2013, Cell Cycle 12:511-521). The epithelial nature of the isolated cells was determined by immunostaining for Ck18. Purity of the cultures based on CD44 expression by flow cytometry and chemoresistance were routinely tested. […]
(§1) Effect of each compound on cell morphology, growth, and viability was assessed using a kinetic live cell imaging system (Incucyte, Essen Bioscience). Proliferation was calculated as previously described (Alvero, et al., 2011, Mol. Cancer Ther. 10:1385-1393) using metrics from either confluence or fluorescent count from nuclear-restricted RFP or GFP. Cell death was quantified; similarly CELLTOX® Green Cytotoxicity Assay (Promega, Madison, Wis.). IC50 was calculated as described using GraphPad Prism (GraphPad Software Inc., LaJolla, Calif.).
(§2) A panel of four different SBP subfamilies with cytotoxic activity against chemoresistant ovarian cancer stem cells were tested for efficacy in inducing ovarian cancer stem cell death. […] The efficacy of each analog was determined based on its IC50.

[2] = tested on: OCSC2 (chemoresistant CD44+/MyD88+ ovarian cancer stem cell clone); test: Real-time measurement of cell number/cell death and IC50, OCSC2 clone; assay type: cell-based, human
Description: (§3) CD44+/MyD88+ ovarian cancer stem cell clones (OCSC1 and OCSC2) and CD44−/MyD88− ovarian cancer cells (OCC1 and OCC2) were isolated from either tumor tissue or ascites obtained from patients diagnosed with stage III/IV serous ovarian cancer and propagated (Alvero, et al., 2009, Cell Cycle 8:158-166; Chefetz, et al., 2013, Cell Cycle 12:511-521). The epithelial nature of the isolated cells was determined by immunostaining for Ck18. Purity of the cultures based on CD44 expression by flow cytometry and chemoresistance were routinely tested. Stable expression of nuclear-restricted red fluorescent (in OCSCs) or green fluorescent proteins (in OCCs) was performed by transduction using NUCLIGHT® Red or Green Lentivirus Reagent (Essen Bioscience, Ann Arbor, Mich.). Spheroids were formed from OCSCs by culturing in ultra-low attachment multi-well plates (Corning, Inc., Corning, N.Y.).
as §1, §2
TRX-E-002 exists as a racemic mixture comprised of two enantiomers, enantiomer A (TRX-E-002-1) and enantiomer B (TRX-E-002-2). Thus, the enantiomers were separated and assessed separately. […]

[3] = tested on: OCSCs (CD44+/MyD88+ ovarian cancer stem cells); test: OCSC growth, morphology, RFP+ cell count and Celltox cell death (kinetic live cell imaging); assay type: cell-based, human
Description: as §3, §1
In vitro, conventional chemotherapeutic drugs had negligible effect on OCSC growth even in the μM range (FIG. 1B).
TRX-E-002 exists as a racemic mixture comprised of two enantiomers, enantiomer A (TRX-E-002-1) and enantiomer B (TRX-E-002-2). Thus, the enantiomers were separated and assessed separately. To distinguish between an analog's cytostatic or cytotoxic activity, OCSC clones that are stably transfected with nuclear-restricted RFP were used, which allows an accurate quantification of the number of cells and can be multiplexed with CELLTOX® assay to concomitantly measure the number of dead cells.

[4] = tested on: chemoresistant ovarian cancer stem cells; test: OCSC growth and morphology with TRX-E-002-1, AICAR or the combination; assay type: cell-based, human
Description: The effect of each compound on cell growth was assessed using a kinetic live cell imagine system (Incucyte, Essen Bioscience). Proliferation was determined based on either confluence or fluorescent count from nuclear-restricted RFP or GFP. The IC50 values were calculated using GraphPad Prism (GraphPad Software Inc., LaJolla, Calif.). […]

[5] = tested on: co-culture of RFP-labeled OCSC2 and GFP-labeled OCC2; test: In vitro co-culture model 50% RFP-OCSC2 / 50% GFP-OCC2; assay type: cell-based; details: co-culture 50/50; TRX-E-002-1 0.12 μM, Cisplatin 20 μM
Description: as §3, §1
Without wishing to be limited by any theory, response to chemotherapy may be modified by cross-talk among different cancer cell types within the tumor. Thus, to mimic the heterogeneity of ovarian tumors an in vitro co-culture model consisting of RFP-labeled chemoresistant OCSC2 and GFP-labeled chemosensitive OCC2 was used. The co-cultures, which are comprised of 50% RFP-OCSC2 and 50% GFP-OCC2 at time of treatment, were exposed to TRX-E-002-1, cisplatin, or the combination of both. Since GFP-OCC2 has faster doubling time than RFP-OCSC2, it overtook the control co-cultures by the end of the experiment and thus the control co-cultures are mainly comprised of GFP-OCC2 by the 24 h time-point (FIG. 2B).

[6] = tested on: i.p. tumors of mCherry+OCSC1-F2 ovarian cancer cells; test: Recurrent disease xenograft, maintenance treatment after Paclitaxel; assay type: in vivo
Excerpt: The Yale University Institutional Animal Care and Use Committee approved all in vivo studies described. Intra-peritoneal tumors were established in athymic nude mice using 4×10^6 mCherry+OCSC1-F2 ovarian cancer cells (Craveiro, et al., 2013, Cancer Med. 2:751-762). Injection of cancer cells is designated as day 0 and treatment commenced between day 3-5. Establishment of i.p. tumors was confirmed by live imaging (In-Vivo FX PRO, Bruker Corp., Billerica, Mass.) prior to treatment. TRX-E-002-1 was prepared in 20% Captisol or Dexsolve and administered daily at 50 mg/kg or 100 mg/kg. Paclitaxel was given at 12 mg/kg q3d and Cisplatin at 5 mg/kg weekly. All treatments were given i.p. Tumor growth was monitored q3d by live imaging and response to treatment was assessed using ROI area.
Although the standard of care for ovarian cancer patients (platinum plus taxane) is effective initially, most patients develop recurrent disease. Recurrence is the major cause of mortality in ovarian cancer patients, and thus approaches that can prevent recurrence are critical to improve patient survival. As described elsewhere herein, a unique advantage of the xenograft model is the recapitulation of recurrent disease that is typically observed in patients with ovarian cancer. […] Upon recurrence, tumors acquire resistance and become unresponsive to a second-round of Paclitaxel regimen, as observed in ovarian cancer patients. Thus, the model allows one to assess the value of novel compounds in preventing recurrence when given as maintenance treatment.
Thus mice were given Paclitaxel as initial treatment. […] After the 4th dose of Paclitaxel mice were re-randomized into the different maintenance groups. Here the maintenance protocol consisted of continued treatment with Paclitaxel, or maintenance with TRX-E-002-1 (100 mg/kg), or maintenance with Vehicle control.

ERK = test: Phosphokinase array / Western blot for phosphorylated ERK in OCSCs; assay type: cell-based, human; details: U0126 10 μM, 2 hours; comparable to levels induced by TRX-E-002-1
Description: SDS-PAGE and Western blots were performed using 20 μg of total protein lysate as described in Kamsteeg, et al., 2003, Oncogene 22:2611-2620. Antibodies used were: mouse anti-phospho ERK (Santa Cruz Biotechnology, Inc., Dallas, Tex.); rabbit anti-phospho c-Jun, rabbit anti c-Jun, rabbit anti-ERK, rabbit anti-cleaved caspase 3 all from Cell Signaling Technology, Danvers, Mass.; and mouse anti-GAPDH (Sigma-Aldrich).
In order to elucidate the early pathways responsible for the sustained cytotoxic effect observed with TRX-E-002-1, a phosphokinase array was performed. The phosphokinase array detected relative phosphorylation levels of 43 different kinases involved in major signal transduction pathways.
The western blot results also validated the decrease in p-ERK in cells treated with TRX-E-002-1. […] The effect on the phosphorylation status of the kinases (upregulation of p-cJun and downregulation of p-ERK) was observed as early as 2 h post-treatment and maintained up to 24 h (FIG. 4A). The phosphorylation levels of c-Jun and ERK correlate with the differential ability of the two doses of TRX-E-002-1 to induce a sustained cytotoxic effect. […] This correlates with the ability of this dose of TRX-E-002-1 to maintain the upregulation of p-cJun and downregulation of p-ERK even when the compound is removed (FIG. 4B). […]

OCSCs = test: Cell death of OCSCs with JNK or ERK pathway inhibitor; assay type: cell-based, human; details: U0126 10 μM, 24 hour time-point
Description: as §1
Jun N-terminal kinase (JNK) is a stress-activated protein kinase and the main kinase that phosphorylates c-Jun. To determine whether the JNK/Jun pathway is involved in TRX-E-002-1-induced cell death, the JNK inhibitor SP600125 (1,9-Pyrazoloanthrone; a reversible ATP competitive inhibitor selective for JNK 1, 2, and 3) was used. Cells were treated with TRX-E-002-1 in the presence or absence of SP600125.
To determine the importance of downregulating the levels of p-ERK, cells were treated with U0126 (1,4-diamino-2,3-dicyano-1,4-bis(2-aminophenylthio)butadiene) to recapitulate the effect of TRX-E-002-1 on the ERK pathway.

COc1cc(C2COc3c(ccc(O)c3C)C2c2ccc(O)cc2)cc(OC)c1O (racemic) [TRX-E-002, 3-(4-hydroxy-3,5-dimethoxyphenyl)-4-(4-hydroxyphenyl)-8-methylchroman-7-ol]
IC50 [1]: < 0.245 µM | IC50 ([2]; Homo sapiens, screen of 40 SBP analogs, OCSC2 clone (FIG. 1A)): < 0.245 µM | apoptotic cells by microscopic evaluation of the cultures ([3]; 24 hours, compared with Cisplatin or Paclitaxel treated cultures): higher percentage of apoptotic cells | effect on OCSC growth ([3]; chemotherapeutic drugs even in the μM range, TRX-E-002 at low concentrations): persistent growth inhibitory effect

COc1cc(C2COc3c(ccc(O)c3C)C2c2ccc(O)cc2)cc(OC)c1O (single isomer, unassigned) [TRX-E-002-2]
IC50 ([2]; OCSC2, 24 hours (FIG. 1G)): 10 µM | number of nuclear RFP+ cells ([3]; RFP OCSC clones, TRX-E-002-1 beginning at the 0.245 μM dose, TRX-E-002-2 except for the very high dose of 10 μM): mostly ineffective

NC(=O)c1ncn([C@@H]2O[C@H](CO)[C@@H](O)[C@H]2O)c1N [AICAR, 5-aminoimidazole-4-carboxamide-1-β-D-ribofuranoside, reference compound]
cell morphology / apoptotic cells ([4]; 48 hours, AICAR at 0.2 mM): no effect | effect on cell growth ([4]; TRX-E-002-1 25 ng/ml, mono therapies or combination): minimal effect

N.N.[Cl][Pt][Cl] [Cisplatin, reference compound]
number of GFP+ cells (GFP-OCC2) [5]: decrease | number of mCherry+ cells (RFP-OCSC2) [5]: no effect

CC(=O)O[C@H]1C(=O)[C@@]2(C)[C@H]([C@H](OC(=O)c3ccccc3)[C@]3(O)C[C@H](OC(=O)[C@H](O)[C@@H](NC(=O)c4ccccc4)c4ccccc4)C(C)=C1C3(C)C)[C@]1(OC(C)=O)CO[C@@H]1C[C@@H]2O [Paclitaxel, reference compound]
tumor progression during initial treatment ([6]; Paclitaxel 4 doses at 12 mg/kg i.p.): significant delay in tumor progression | tumor progression during maintenance treatment ([6]; after 4th dose of Paclitaxel, TRX-E-002-1 100 mg/kg daily i.p. or continued Paclitaxel): tumor progression was observed | gross examination of residual disease ([6]; maintenance groups): visible carcinomatosis and extensive metastasis | tumor weights at end point compared to control ([6]; maintenance groups): not

N#CC(=C(N)Sc1ccccc1N)C(C#N)=C(N)Sc1ccccc1N [U0126, 1,4-diamino-2,3-dicyano-1,4-bis(2-aminophenylthio)butadiene, reference compound]
levels of p-ERK (ERK): downregulated | effect on cell death relative to TRX-E-002-1 (OCSCs): not comparable

From patent US10265294B2, “Compositions and methods for treating epithelial cancer” (YALE UNIVERSITY, priority 2016, dated 2019)
